Measured values published in ChEMBL document CHEMBL2086293, “Diaminopyridine-based potent and selective mps1 kinase inhibitors binding to an unusual flipped-Peptide conformation” (ACS Med Chem Lett, 2012).

Tests used:
[1] = molecular target: Mitogen-activated protein kinase 8 (Homo sapiens, UniProt P45983); assay: Inhibition of JNK1-mediated ATF2 phosphorylation after 1 hr by ELISA
A549 [2] = assay: Antiproliferative activity against human A549 cells after 72 hrs by WST8 assay; type: functional, cell-based; conditions: A549, 72 h
[3] = molecular target: Receptor-type tyrosine-protein kinase FLT3 (Homo sapiens) (UniProt P36888); assay: Inhibition of FLT3 at 1 uM
[4] = system: T1, Receptor-type tyrosine-protein kinase FLT3 (Homo sapiens), P36888 [D835Y]; assay: Inhibition of FLT3 D835Y mutant at 1 uM
T1 sequence (whole entry): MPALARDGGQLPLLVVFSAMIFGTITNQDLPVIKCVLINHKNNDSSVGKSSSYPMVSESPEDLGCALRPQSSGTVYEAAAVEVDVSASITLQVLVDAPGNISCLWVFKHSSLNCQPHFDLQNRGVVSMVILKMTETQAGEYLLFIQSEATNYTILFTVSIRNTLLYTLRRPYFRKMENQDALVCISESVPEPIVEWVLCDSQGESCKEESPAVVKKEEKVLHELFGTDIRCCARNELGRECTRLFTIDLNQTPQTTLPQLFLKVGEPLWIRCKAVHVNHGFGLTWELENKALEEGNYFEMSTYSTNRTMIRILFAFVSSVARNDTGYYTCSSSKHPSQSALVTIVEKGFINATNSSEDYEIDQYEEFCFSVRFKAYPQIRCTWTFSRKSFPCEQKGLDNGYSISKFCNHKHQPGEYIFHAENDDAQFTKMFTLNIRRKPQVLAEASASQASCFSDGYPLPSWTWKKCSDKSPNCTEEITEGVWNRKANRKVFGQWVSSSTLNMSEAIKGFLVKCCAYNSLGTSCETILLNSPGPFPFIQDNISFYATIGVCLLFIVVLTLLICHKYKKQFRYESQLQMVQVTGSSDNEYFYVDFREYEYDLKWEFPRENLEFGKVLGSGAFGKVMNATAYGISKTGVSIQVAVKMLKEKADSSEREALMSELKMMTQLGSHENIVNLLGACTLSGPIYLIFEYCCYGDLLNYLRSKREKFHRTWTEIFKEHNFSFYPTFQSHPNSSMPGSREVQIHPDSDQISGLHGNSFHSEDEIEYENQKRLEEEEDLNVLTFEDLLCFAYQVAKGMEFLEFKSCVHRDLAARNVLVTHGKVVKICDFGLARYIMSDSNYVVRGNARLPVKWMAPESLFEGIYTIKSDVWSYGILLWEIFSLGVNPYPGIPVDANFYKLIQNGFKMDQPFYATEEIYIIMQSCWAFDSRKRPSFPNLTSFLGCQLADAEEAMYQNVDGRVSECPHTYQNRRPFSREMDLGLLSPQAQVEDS

[5] = Cmax in mouse at 25 mg/kg, po; type: ADME, organism-based; set-up: dose 25 mg/kg, route oral; conditions: in vivo
[6] = Tmax in mouse at 25 mg/kg, po; type: ADME, organism-based; set-up: dose 25 mg/kg, route oral; conditions: in vivo
[7] = AUC in mouse at 25 mg/kg, po; type: ADME, organism-based; set-up: dose 25 mg/kg, route oral; conditions: plasma
A549 [8] = assay: Antitumor activity against human A549 cells xenografted in po dosed BALB/cA Jcl-nu/nu mouse assessed as tumor growth inhibition administered QD for 19 days; type: functional, organism-based
A549 [9] = assay: Antitumor activity against human A549 cells xenografted in BALB/cA Jcl-nu/nu mouse assessed as tumor growth inhibition at 100 mg/kg, po administered QD for 19 days relative to vehicle-treated control; conditions: 456 h, read-out: TGI
Mus musculus = assay: Toxicity in BALB/cA Jcl-nu/nu mouse xenografted with human A549 cells assessed as body weight loss at 100 mg/kg, po administered QD for 19 days; type: organism-based; set-up: dose 100 mg/kg, route oral; conditions: in vivo, 456 h

Chain of Mitogen-activated protein kinase 8 (P45983 whole entry): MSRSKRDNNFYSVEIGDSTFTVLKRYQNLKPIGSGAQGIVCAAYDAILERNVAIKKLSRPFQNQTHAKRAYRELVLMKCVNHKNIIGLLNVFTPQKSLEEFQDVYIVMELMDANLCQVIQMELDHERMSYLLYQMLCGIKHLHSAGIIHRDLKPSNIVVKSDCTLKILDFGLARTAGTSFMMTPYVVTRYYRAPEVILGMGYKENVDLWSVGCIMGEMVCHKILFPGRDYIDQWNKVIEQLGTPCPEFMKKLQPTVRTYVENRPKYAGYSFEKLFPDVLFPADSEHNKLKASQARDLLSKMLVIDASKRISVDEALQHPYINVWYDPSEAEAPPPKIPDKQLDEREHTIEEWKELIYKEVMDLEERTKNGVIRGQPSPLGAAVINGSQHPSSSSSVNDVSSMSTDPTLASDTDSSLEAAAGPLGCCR

Compound	IC50 [1] [nM]	IC50 (A549 [2]) [nM]	also measured
CCOc1nc(NCCc2ccccc2)cc(N)c1C#N	> 100000	–	–
CC(C)(C)Nc1nc(Nc2ccc(C(N)=O)cc2)cc(N)c1C#N	231	840	inhibition [3]: 50%; inhibition [4]: 86%; Cmax [5]: 3540 ng/mL; Tmax [6]: 15 min; AUC [7]: 6600 ng·h/mL; TGI (A549 [8]): Dose-dependent effect; inhibition in vivo at 100 mg/kg (A549 [9]): 47%; Activity (Mus musculus): Non-toxic
CCOc1nc(Nc2ccccc2)cc(N)c1C#N	1040	–	–
CCOc1nc(Nc2ccc(C(N)=O)cc2)cc(N)c1C#N	190	9500	–
CCOc1nc(C(=O)NCc2ccccc2)cc(N)c1C#N	350	–	–
CCOc1nc(NC(=O)Cc2ccccc2)cc(N)c1C#N	260	–	–
